Results: US20250152719A1, “FUSED IMIDE DERIVATIVE” (Chia Tai Tianqing Pharmaceutical Group Co., Ltd., priority 2021, published 2025)
Where two headings read alike, the source gives them in different places.

How the values were obtained:
BTK = BTK (Homo sapiens (Human), UniProt Q06187); test: BTK degradation in OCI-LY10 cells (Total-BTK HTRF kit); type: cell-based; conditions: 24 (or 6) h incubation; for DC50 / BTK degradation in OCI-LY10 cells Dmax: OCI-LY10 cells; for DC50: DC50 = concentration when degradation rate reaches 50%, read-out: OCI-LY10 cell BTK degradation DC50; for BTK degradation in OCI-LY10 cells Dmax / Dmax: maximum degradation rate; for Dmax: OCI-Ly10, OCI-LY10 cells
Procedure, shortened: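 OCI-LY10 cells seeded overnight, then treated with compound at 100 nM-0.098 nM in duplicate for 24 (or 6) h. Lysates probed by Total-BTK HTRF (d2/Eu cryptate antibodies, overnight, room temperature), read at 665/620 nm; DC50 and Dmax from four-parameter dose-response fits.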

OCI-LY10 cells = test: Inhibitory activity on OCI-LY10 cell proliferation (CCK-8); type: cell-based
Description: OCI-LY10 cells in a good growth state were collected and added to a centrifuge tube, adjusted to a cell density of 1×10^5 cells/mL, and seeded in a 96-well plate (100 μL/well). The cells were incubated overnight in a cell incubator. Compounds were added using a nanoliter pipettor such that the final concentrations of the compounds were 5000 nM-0.31 nM; the addition was performed in duplicate, and meanwhile, a control was set. After another 72 h of incubation in the cell incubator, 10 μL of CCK-8 (CK04, PP799) was added. After 2.5 h of incubation in the cell incubator, absorbance values were detected at 450 nm using an Envision microplate reader, the four-parameter analysis was performed, the dose-response curves were fit, and IC50 was calculated.

[1] = tested on: OCI-LY10-BTK(C481S) cells; test: Inhibitory activity on OCI-LY10-BTK(C481S) cell proliferation (CCK-8); type: cell-based; conditions: 72 h incubation, IC50 per method, unit inferred
Description: OCI-LY10(C481S) cells in the logarithmic growth phase were collected and added to a centrifuge tube, adjusted to a cell density of 5×10^4 cells/mL, and seeded in a 96-well plate (100 μL/well). Meanwhile, compounds were added using a nanoliter pipettor such that the final concentrations of the compounds were 5000 nM-0.31 nM; the addition was performed in duplicate, and meanwhile, a control was set. After another 72 h of incubation in the cell incubator, the detection reagent CCK-8 (manufacturer: Dojindo Laboratories, Beijing; 10 μL/well) was added. After 3 h of incubation in the cell incubator, absorbance values were detected at 450 nm using a PerkinElmer Envision microplate reader, the four-parameter analysis was performed, the dose-response curves were fit, and IC50 was calculated.

[2] = In vitro liver microsomal stability, mouse; conditions: 0.5 mg/mL microsomes, NADPH, 37° C., 1 h
Description: (§1) Liver microsome incubation samples were prepared by mixing a PBS buffer (pH 7.4), a liver microsome solution (0.5 mg/mL), a test compound, and an NADPH+MgCl2 solution and incubated at 37° C. and 300 rpm for 1 h. Zero-hour samples were prepared by mixing a PBS buffer (pH 7.4), a liver microsome solution (0.5 mg/mL), and a test compound. An acetonitrile solution containing an internal standard was added to the samples, and supernatants were prepared by protein precipitation, diluted, and then assayed by LC/MS/MS.

TMD8-BTK(C481S) cells = test: Inhibitory activity on TMD8-BTK(C481S) cell proliferation (CCK-8); type: cell-based; conditions: 72 h incubation
Procedure, shortened: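 Cells seeded at 8×10^4 cells/mL, incubated overnight, then treated in duplicate with compounds at 5000 nM-0.31 nM for 72 h. Viability by CCK-8 (4 h, absorbance 450 nm); IC50 from four-parameter dose-response fits.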

[3] = In vitro liver microsomal stability, human; type: in vitro ADME; conditions: 0.5 mg/mL microsomes, NADPH, 37° C., 1 h
Description: as §1

Mouse pharmacokinetics = type: in vivo, ICR mice
Description: ICR mice weighing 18-22 g were randomized into groups of 9 after 3-5 days of acclimatization and then intragastrically given the test compound solution at a dose of 10 mg/kg. Plasma samples to be tested were prepared by taking blood from the orbit at time points of 15 min, 30 min, 1 h, 2 h, 3 h, 4 h, 6 h, 8 h, 10 h, and 24 h. 20 μL of each plasma sample to be detected and a standard curve sample were taken, and an acetonitrile solution containing an internal standard was added. […] Pharmacokinetic parameters were fitted using a non-compartmental model (see Table 5).

TMD-8 xenograft tumors = test: In vivo drug efficacy, TMD-8 mouse subcutaneous xenograft tumors; parameters: species or system NOD-SCID mice; conditions: 30 mg/kg, qd, i.g.; for TGI d 17: 16 days, tumor weight on day 17; for TV on d 0 Mean ± SD: day 0 (baseline at grouping); for TV on d 12 Mean ± SD: day 12; for TV on d 15 Mean ± SD: day 15
Description: TMD-8 mouse subcutaneous xenograft tumors: TMD-8 (WT) cells at a concentration of 1×10^8/mL were inoculated under aseptic conditions into the right side armpit of NOD-SCID mice at 0.1 mL/mouse. After subcutaneous grafting, the animals were divided into groups with 6 animals in each group when the tumor volume reached about 188 mm^3 (or 200 mm^3):
model group: vehicle, 6 mice; compound administration groups: 30 mg/kg, qd, i.g., 6 mice.
The vehicle or the test compound was intragastrically given at a volume of 4 mL/kg, once daily for 16 consecutive days. The tumor volume was measured 2-3 times a week, and meanwhile, the mice were weighed and the data were recorded; the general behaviors of the animals were observed every day. After all dosing was complete, the animals were sacrificed on day 17, and the tumors were removed and weighed.
The tumor volume and the tumor growth inhibition were calculated using the following formulae:
Tumor volume (TV)=(Length×Width^2)/2.
Tumor growth inhibition (TGI)=(1−tumor weight of treatment group/tumor weight of model group)×100%.

[4] = ICR, mouse, plasma, iv, 1 mg/kg, Mouse i.v. 1 mpk
[5] = ICR, mouse, plasma, iv, 1 mg/kg, Mouse i.v. 1 mpk, read-out: AUC
[6] = ICR, mouse, plasma, po, 10 mg/kg, Mouse i.g. 10 mpk
[7] = ICR, mouse, plasma, po, 10 mg/kg, Mouse i.g. 10 mpk, read-out: AUC
[8] = ICR, mouse, plasma, po, 10 mg/kg, Mouse i.g. 10 mpk, read-out: Cmax
[9] = Homo sapiens, OCI-Ly10, 72 h incubation

BTK, sequence (Q06187 whole entry): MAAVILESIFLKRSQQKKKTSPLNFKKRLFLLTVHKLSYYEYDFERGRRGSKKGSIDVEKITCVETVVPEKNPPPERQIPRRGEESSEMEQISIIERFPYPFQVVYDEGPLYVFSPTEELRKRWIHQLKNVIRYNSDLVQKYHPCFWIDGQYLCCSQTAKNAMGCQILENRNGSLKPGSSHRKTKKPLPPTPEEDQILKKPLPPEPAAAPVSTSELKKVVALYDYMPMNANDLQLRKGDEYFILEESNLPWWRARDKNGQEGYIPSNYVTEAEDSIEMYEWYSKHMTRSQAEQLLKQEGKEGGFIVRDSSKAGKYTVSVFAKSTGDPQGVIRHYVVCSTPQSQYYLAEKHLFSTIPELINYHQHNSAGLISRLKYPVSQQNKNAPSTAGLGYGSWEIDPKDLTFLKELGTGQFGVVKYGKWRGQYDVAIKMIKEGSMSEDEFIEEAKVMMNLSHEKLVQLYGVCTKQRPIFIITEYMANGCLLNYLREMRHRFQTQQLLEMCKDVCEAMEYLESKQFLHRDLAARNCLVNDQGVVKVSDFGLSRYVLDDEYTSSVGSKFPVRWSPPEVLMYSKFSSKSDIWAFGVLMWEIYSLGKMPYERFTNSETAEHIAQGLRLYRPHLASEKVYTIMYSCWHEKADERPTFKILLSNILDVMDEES

Row | Compound | DC50 (BTK) [nM] | Mouse liver microsome Residuals at 60 min [2] [%] | Dmax (BTK) [%] | IC50 (TMD8-BTK(C481S) cells; 72 h) [nM] | Human liver microsome Residuals at 60 min [3] [%] | TGI d 17 (TMD-8 xenograft tumors) [%] | TV on d 0 Mean ± SD (TMD-8 xenograft tumors) [mm^3] | TV on d 12 Mean ± SD (TMD-8 xenograft tumors) [mm^3] | TV on d 15 Mean ± SD (TMD-8 xenograft tumors) [mm^3] | other results
1 | CN1CCN([C@@H]2CCCN(c3cnc(C(N)=O)c(Nc4ccc(C5CCN(C[C@@H]6CCC(c7cc8[nH]ccc8c8c(C9CCC(=O)NC9=O)noc78)C6)CC5)cc4)n3)C2)C1=O (some centres unmarked) [Compound 14] | < 0.098 | 62.41 |  |  |  |  |  |  |  | BTK degradation in OCI-LY10 cells Dmax (BTK): 100%; IC50 (OCI-LY10 cells; 72 h incubation): < 0.31 nM; IC50 [1]: < 0.31 nM
2 | NC(=O)c1ncc(N2CCCCC2)nc1Nc1ccc(N2CCC(CN3CCc4ccc5c(C6CCC(=O)NC6=O)noc5c4CC3)CC2)cc1 (centres unmarked) [Compound 72] |  |  | > 90 | 2.6 | 94.0 | 97.9 | 226 ± 21 | 246 ± 52 | 122 ± 78 | clearance (Mouse pharmacokinetics; [4]): 12 mL/min/kg; half-life (Mouse pharmacokinetics; [4]): 2.3 h; AUC (Mouse pharmacokinetics; [5]): 1290 ng·h/mL; half-life (Mouse pharmacokinetics; [6]): 4.6 h; AUC (Mouse pharmacokinetics; [7]): 8300 ng·h/mL; Cmax (Mouse pharmacokinetics; [8]): 634 ng/mL; F (Mouse pharmacokinetics; Mouse i.g. 10 mpk): 64.50%
3 | NC(=O)c1ncc(N2CCCCC2)nc1Nc1ccc(C2CCN(C[C@@H]3CC[C@@H](n4ccc5c6c(C7CCC(=O)NC7=O)noc6ccc54)C3)CC2)cc1 (some centres unmarked) [Compound 104] |  |  |  | 16 |  | 96.0 | 226 ± 27 | 286 ± 77 | 269 ± 61 | 
4 | NC(=O)c1ncc(N2CCCCC2)nc1Nc1ccc(C2CCN(C[C@@H]3CC[C@H](n4ccc5c6c(C7CCC(=O)NC7=O)noc6ccc54)C3)CC2)cc1 (some centres unmarked) [Compound 105] |  |  |  | 6.9 |  | 95.4 | 226 ± 28 | 253 ± 36 | 229 ± 49 | 
5 | CN1CCN([C@@H]2CCCN(c3cnc(C(N)=O)c(Nc4ccc(C5CCN(CC6CCN(c7ccc8c(C9CCC(=O)NC9=O)noc8c7)CC6)CC5)cc4)n3)C2)C1=O (some centres unmarked) [Compound 8] | < 0.098 | 54.7 | 99 | 6.9 |  |  |  |  |  | IC50 (OCI-LY10 cells; [9]): < 0.31 nM
6 | NC(=O)c1ncc(N2CCCCC2)nc1Nc1ccc(C2CCN(CC3CN(c4ccc5c(C6CCC(=O)NC6=O)noc5c4)C3)CC2)cc1 (centres unmarked) [Compound 94] |  | 75.0 | > 90 |  | 81.0 |  |  |  |  | IC50 (OCI-LY10 cells; [9]): < 0.31 nM; IC50 ([1]; 72 h): 0.53 nM
7 | CN1CCN([C@@H]2CCCN(c3cnc(C(N)=O)c(Nc4ccc(C5CCN(C6CN(c7cc8onc(C9CCC(=O)NC9=O)c8c8ccccc78)C6)CC5)cc4)n3)C2)C1=O (some centres unmarked) [Compound 93] |  | 72.0 | > 90 |  | 53.0 |  |  |  |  | IC50 ([1]; 72 h): 0.7 nM
8 | CN1CCN([C@@H]2CCCN(c3cnc(C(N)=O)c(Nc4ccc(C5CCN(C[C@@H]6CCC(c7ccc8c(C9CCC(=O)NC9=O)noc8c7)C6)CC5)cc4)n3)C2)C1=O (some centres unmarked) [Compound 7] | < 0.098 | 42.7 | 99 |  |  |  |  |  |  | IC50 (OCI-LY10 cells; [9]): < 0.31 nM
9 | NC(=O)c1ncc(N2CCCCC2)nc1Nc1ccc(C2CCN(C3Cc4ccc5c(C6CCC(=O)NC6=O)noc5c4C3)CC2)cc1 (centres unmarked) [Compound 69] |  | 85.0 |  |  | 80.0 | 96.4 | 226 ± 21 | 246 ± 56 | 199 ± 72 | IC50 (TMD8-BTK(C481S) cells): 5.7 nM; clearance (Mouse pharmacokinetics; [4]): 2 mL/min/kg; half-life (Mouse pharmacokinetics; [4]): 2.6 h; AUC (Mouse pharmacokinetics; [5]): 8030 ng·h/mL; half-life (Mouse pharmacokinetics; [6]): 7 h; AUC (Mouse pharmacokinetics; [7]): 41400 ng·h/mL; Cmax (Mouse pharmacokinetics; [8]): 2730 ng/mL; F (Mouse pharmacokinetics; Mouse i.g. 10 mpk): 51.6%
10 | CN1CCN([C@@H]2CCCN(c3cnc(C(N)=O)c(Nc4ccc(C5CCN(CC6Cc7ccc8c(C9CCC(=O)NC9=O)noc8c7C6)CC5)cc4)n3)C2)C1=O (some centres unmarked) [Compound 90] |  | 54.63 |  |  |  |  |  |  |  | BTK degradation in OCI-LY10 cells Dmax (BTK): >90%; IC50 (OCI-LY10 cells; 72 h incubation): < 0.31 nM; IC50 (TMD8-BTK(C481S) cells): 1.2 nM; AUC (Mouse pharmacokinetics; Mouse i.g. 10 mpk): 18944 ng·h/mL; Cmax (Mouse pharmacokinetics; Mouse i.g. 10 mpk): 2550 ng/mL; F (Mouse pharmacokinetics; Mouse i.g. 10 mpk): 21.0%; t1/2 (Mouse pharmacokinetics; Mouse i.g. 10 mpk): 3 h; AUC (Mouse pharmacokinetics; Mouse i.v. 1 mpk): 8882 ng·h/mL; Cl (Mouse pharmacokinetics; Mouse i.v. 1 mpk): 1.83 mL/min/kg; t1/2 (Mouse pharmacokinetics; Mouse i.v. 1 mpk): 2.7 h
11 | CN1CCN([C@@H]2CCCN(c3cnc(C(N)=O)c(Nc4ccc(C5CCN(C[C@@H]6CCC(c7cc8onc(C9CCC(=O)NC9=O)c8c8cc[nH]c78)C6)CC5)cc4)n3)C2)C1=O (some centres unmarked) [Compound 13] | < 0.098 | 56.41 |  |  |  |  |  |  |  | BTK degradation in OCI-LY10 cells Dmax (BTK): 100%; IC50 (OCI-LY10 cells; 72 h incubation): < 0.31 nM; IC50 [1]: < 0.31 nM
